Laboratory results published in patent US5552267A, “Solution for prolonged organ preservation” (priority 1994, dated 1996).
Entries after “also recorded” stand apart in the source; their conditions may differ.

Tests used:
[1] = tested on: HUVECs / platelets; assay: NO by inhibition of thrombin-induced platelet aggregation and serotonin release by ECs; assay type: cell-based, human; settings: normoxic ECs (hemoglobin); hypoxia 16 h + reoxygenated ECs (SOD, BHT)
Protocol: Radiolabelled serotonin (^14 C-5-hydroxytryptamine, Amersham, Arlington Heights, Ill.) was incorporated into the platelets by adding 0.5 μCi during the blood collection process. Inhibition of cyclooxygenase was confirmed by the absence of aggregation to 1 mM sodium arachidonate.
HUVECs from fresh human umbilical veins were isolated and grown according to previously published methods^12, and used between the 3rd and 4th passages. HUVEC cyclooxygenase was inhibited with acetylsalicylic acid (1 mmol/L in M199 medium, incubated for 30 minutes at 37° C., and then washed twice with M199 to remove residual acetylsalicylic acid) immediately prior to collagenase digestion. […] An hypoxic environment was administered by placing cells in a specially designed airtight chamber (Coy Laboratory Products, Ann Arbor, Mich.) with a normobaric environment comprised of 90% N2, 5% H2, 5% CO2, and 0% O2. pO2 s of 15 Torr in the culture medium were achieved by the use of a palladium catalyst in the chamber to reduce any residual O2. All manipulations, including centrifugation and washing of cells (up to the final aggregometry, or reoxygenation phases as described), were performed within the hypoxia chamber. Reoxygenation was accomplished by removing an aliquot of washed and counted HUVECs in suspension to room air for the indicated duration.
Platelets were challenged with graded doses of α-thrombin (Sigma) to determine the concentration that caused maximal platelet aggregation (0.3 u/mL in all cases), and this dose was used for all further studies. […] Interference with light absorption was measured for 3 minutes to obtain platelet aggregation curves, after which the cuvette contents were placed on ice, centrifuged at 5,000 rpm for 5 minutes at 4° C., and 200 μL of supernatant was recovered and counted in a liquid scintillation counter to quantify ^14 C-serotonin release. […] Results are expressed as both aggregometry curves and as % maximal serotonin release as defined by thrombin challenge in the absence of ECs.

[2] = tested on: heart; settings: in vivo; cited from earlier work
[3] = tested on: heart; assay: heterotopic rat cardiac transplant, nitric oxide series, graft survival/score; assay type: in vivo, rat (male Sprague-Dawley); settings: 12 h in LR
Source text: Male Sprague-Dawley rats (350 grams, Camm Research, Wayne, N.J.) were used, and harvest, preservation, and transplantation procedures performed as described^8. Preservation solutions included lactated Ringer's (LR) solution (Baxter, Edison, N.J.), or LR supplemented with nitroglycerin (DuPont, Wilmington, Del.), sodium nitroprusside (Roche Laboratories, Nutley, N.J.), N^G -monomethyl-L-arginine (L-NMMA; Chembiochem, Salt Lake City, Utah), L-arginine (Sigma Chemical Co., St. Louis, Mo.), or 8-bromoguanosine3',5'monophosphate (8-Br-cGMP; Sigma). Components were combined within 4 hrs of donor cardiectomy, and preservation solutions were kept at 4° C. All of these solutions were at the pH of LR (6.6). University of Wisconsin solution (UW) was purchased from Dupont. […] Ten minutes after removal of the cross-clamp, an electrocardiogram was taken (Grass Polygraph, Quincy, Mass.) and the heart was judged by the same blinded investigators throughout based on the presence/absence of regular contractions and a transplant score (0-5, worst-best, respectively) employing the following criteria: contraction (poor=0, average=1, vigorous=2), tissue turgor (hard=0, average=1, soft=2), and color (dusky=0, pink=1).
Graft survival data was analyzed by contingency analysis (chi-square). Transplant scores, microsphere perfusion, myeloperoxidase, NO synthase, and platelet serotonin release data were analyzed using ANOVA for unpaired variables with the Tukey test used to discriminate significant differences between group means. Values are expressed as means ±SEM, with a p<0.05 considered statistically significant.

[4] = tested on: cardiac graft vasculature; assay: perfusion of donor grafts by microspheres, nitric oxide series; assay type: in vivo, rat; settings: 12 h preservation in LR
Protocol: Ten minutes after restoration of blood flow, 0.5 ml of 10 μm diameter microspheres (10^6 /ml) (E-Z Trac, Los Angeles, Calif.) was injected into the donor aortic root. Deposition of microspheres in ventricular tissue was assessed following alkaline hydrolysis, washing, and counting of microspheres as described^8, with results expressed as number of spheres per (40×) field per gram of ventricle. A minimum of ten fields were counted and the mean ±SEM is reported.

[5] = tested on: heart; assay: heterotopic rat cardiac transplant, cAMP series, graft survival/score; assay type: in vivo, rat (male Sprague-Dawley); settings: 12 h in LR
Source text: Preservation solutions included lactated Ringer's (LR) solution Baxter, Edison, N.J.), or LR supplemented with rolipram ZK 62 711, Schering AG, Berlin, Germany), indolidan LY195115, Lilly Research Laboratories, Indianapolis, Ind.), sodium butyrate, 8-bromoadenosine, 8-bromoadenosine 3',5'monophosphate (8-Br-cAMP; Sigma Chemical Co., St. Louis, Mo.), the Rp -isomer of adenosine 3',5'monophosphorothioate (Rp -cAMPS; Biolog, La Jolla, Calif.), the Sp isomer of adenosine 3',5'monophosphorothioate (Sp -cAMPS; Biolog), and N^6,O^2' -dibutyryl adenosine 3',5'monophosphate sodium (db-cAMP; Aldrich, Milwaukee, Wis.). Components were combined within 4 hrs of donor cardiectomy, and preservation solutions were kept at 4° C. University of Wisconsin solution (UW)(2-4 was purchased from Dupont (Wilmington, Del.).
Donor Cardiectomy. Male Sprague-Dawley rats (350-450 grams, Camm Research, Wayne, N.J.) were anesthetized, heparinized (1000 units of heparin given intravenously), and the donor heart removed in the following manner; a midline incision was performed, followed by rapid cardioplegic arrest with 5 ml of cold (4° C.), high potassium solution (NACl, 0.9%, and KCl, 40 mEq/L). The heart was maintained at 4° C. throughout the harvest procedure by the application of a cold saline soaked gauze over its surface. […] The aortic root was flushed with ≈15 ml of the cold preservation solution until the coronary arteries became visibly clear, and the heart remained in the cold storage solution for the indicated duration until the time of transplantation.
Heterotopic Transplant. The same breed/size of rat was used, and similarly anesthetized, but not given heparin. A midline abdominal incision was made, and the infrarenal aorta and vena cava were occluded with a side-biting vascular clamp and longitudinal incisions were made in each vessel. The donor heart was removed from the preservation solution and kept moist with saline-soaked gauze. […] Blood flow was restored to the graft (by removal of the clamp) exactly one hour after removal from the cold preservation solution. […] Ten minutes after removal of the cross-clamp, an electrocardiogram was taken (Grass Polygraph, Quincy, Mass.) and the heart was judged by the same blinded investigators throughout based on the presence/absence of regular contractions and a transplant score (0-5, worst-best, respectively) employing the following criteria: contraction (poor=0, average=1, vigorous=2), tissue turgor (hard=0, average=1, soft=2), and color (dusky=0, pink=1). […] The heterotopic cardiac transplant experiments performed in these studies were done by a single surgeon after establishment of this model and acquisition of surgical expertise, with control and experimental groups interspersed throughout the study period to prevent a time-dependent bias pertaining to surgical skills.
Statistics. Graft survival data and transplant scores were analyzed using the Kruskal-Wallis non-parametric analysis of variance (38). Comparisons of individual treatments were performed using the procedure described by Dunn (39). In addition, the effect of db-cAMP on the time-course of graft failure was quantified by multivariate logistic regression. Graft myeloperoxidase data, microsphere data, and cAMP/adenylate cyclase/phosphodiesterase data from experiments with cultured vascular smooth muscle cells were analyzed by t-tests when 2 treatments were performed or by analysis of variance when 3 or more treatments were performed. In the latter case, post-hoc comparison of treatment groups were tested using Tukey's procedure. Values are expressed as means ±SEM, with a p <0.05 considered statistically significant.

[6] = tested on: cAMP-dependent protein kinase; settings: cited from earlier work
[7] = target: cGMP-dependent protein kinase; settings: cited from earlier work
[8] = tested on: lung; assay: orthotopic rat left lung transplantation, cGMP series (hemodynamics, oxygenation, recipient survival); assay type: in vivo, rat (male Lewis); settings: 6 h in EC
Protocol: Orthotopic rat left lung transplantation was accomplished using inbred male Lewis rats (250-300 gms), using a modification of a previously described technique^29. The donor rat was anesthetized and heparinized (500 U intravenously), and endotracheal intubation was performed by inserting a 16 gauge angiocatheter into the trachea using blunt cervical dissection, after which the rat was ventilated with room air at a constant rate (100 breaths/minute) and tidal volume (2.5 ml), using a Harvard rodent ventilator. […] The pulmonary artery (PA) and pulmonary vein (PV) were divided, the bronchus ligated with the lung partially inflated and then divided, and the lung removed. The vascular stumps were each pulled through a small plastic cylinder, and a lip of vessel was turned back around the edge and secured in place with a suture to form a "cuff." A small plastic cylinder was inserted into the bronchial stump and secured, and the lung was then wrapped in gauze and submerged in cold preservation solution for the desired interval.
The recipient rat (gender/size/strain-matched) was similarly anesthetized and intubated (ventilated with 100% oxygen), but not heparinized. A left thoracotomy was performed, the hilum was dissected, and the left bronchus, PA, and PV were isolated, cross-clamped, divided and the native lung was removed from the field. The PA and PV stumps were rinsed with heparinized saline to remove any clot. The donor lung was brought onto the surgical field, and the cylinder (bronchus) and cuffs (PA and PV) were connected rapidly to their respective structures with a simple staying suture. This cuff technique permitted rapid approximation of donor and recipient tissues with no contact of a foreign substance with the luminal vascular surface. The hilar cross-clamp was released, re-establishing blood flow, and the bronchus tie was removed, enabling gas exchange. A snare was then passed around the right PA, and a Millar catheter (2F; Millar Instruments,Houston, Tex.) was introduced through a small hole (surrounded by a pursestring) into the main PA; similarly, a Millar catheter was introduced into the left atrium (LA). A flow probe (Transonics, Ithaca, N.Y.) was then placed around the main PA. Arterial blood gas sampling performed via the left femoral artery.
Online hemodynamic monitoring was accomplished using MacLab and a Macintosh IIci computer. The hemodynamic parameters that were measured included PA pressure (mm Hg), blood flow (ml/min), LA pressure (mm Hg), as well as arterial oxygen tension (mm Hg) during inspiration of 100% oxygen; pO2 was analyzed with a model ABL-2 dissolved gas analyzer (Radiometer, Copenhagen, Denmark). Pulmonary vascular resistances (PVRs) were calculated as [mean PA pressure-LA pressure]/PA flow. The native lung supported the recipient during the period of warm ischemia (the period during which the donor lung was removed from cold preservation until the time of reperfusion, <10 min. in all instances), but immediately following rapid hemodynamic instrumentation and acquisition of baseline measurements, the native (right) PA was then ligated, and serial measurements (representative solely of the transplanted lung) were taken every five minutes for 30 minutes. Because the native lung was effectively removed from the circulation by ligation of the right PA, these measurements represent function of the transplanted lung. Recipient death was identified by the cessation of cardiac mechanical activity observed through the thoracotomy.
Preservation solutions were freshly made and coded by a technician not otherwise involved in the experiments, according to a general plan which included both control and experimental groups. […]

Compound: Cc1cc(C(C)(C)C)c(O)c(C(C)(C)C)c1 [BHT, butylated hydroxytoluene]
- effect on NO / platelet inhibition by ECs [1]: restore NO levels

Compound: N=C(N)NCCC[C@H](N)C(=O)O [L-Arg, L-arginine]
- effect in cardiac ischemia models [2]: improve vascular function and outcome
- effect on graft preservation (words) [3]: enhanced preservation
- effect on graft preservation (words) ([3]; listed as L-arginine): enhanced graft survival
- graft blood flow [4]: enhanced blood flow

Compound: Nc1ncnc2c1ncn2[C@@H]1O[C@@H]2CO[P@@](O)(=S)O[C@H]2[C@H]1O [Rp -cAMPS, Rp isomer of adenosine 3'5'monophosphorothioate]
- effect on cardiac preservation [5]: prevented preservation enhancement induced by 8-bromo-cAMP; also recorded: abolished the salutory effect of 8-Br-cAMP on preservation
- effect on cAMP-dependent protein kinase [6]: nonhydrolyzable competitive PKA antagonist

Compound: Nc1nc2c(nc(Sc3ccc(Cl)cc3)n2[C@@H]2O[C@@H]3CO[P@@](O)(=S)O[C@H]3[C@H]2O)c(=O)[nH]1 [Rp-8-pCPT-cGMPS, R isomer of 8-(4-chlorophenylthio)guanosine-3'5'-cyclic monophosphorothioate]
- Ki ([7]; cGMP-dependent protein kinase, personal communication): 0.5 µM
- effect on lung preservation [8]: block the beneficial effects of 8-Br-cGMP
- Ki ([6]; cAMP-dependent protein kinase, personal communication): 8.3 µM

Compound: Nc1ncnc2c1ncn2[C@@H]1O[C@@H]2CO[P@](O)(=S)O[C@H]2[C@H]1O [Sp -cAMPS, Sp isomer of adenosine 3'5'monophosphorothioate]
- effect on cardiac preservation [5]: enhanced preservation
- effect on cGMP-dependent protein kinase [7]: antagonist of the cGMP-dependent protein kinase
- effect on cAMP-dependent protein kinase [6]: PKA agonist

Compound: hemoglobin
- effect on NO / platelet inhibition by ECs [1]: blocked
